# From patent EP0407583A1, “DERIVATIVES OF DICHLOR[…] ACYLAMIDO[…] AND INSECTICIDAL, FU[…] HEMATOCIDAL PREPARATIONS BASED ON THEM” (priority 1989, dated 1990)
# How the values were obtained:
# Solubility (qualitative) = conditions: water, alcohols, acetone
# Candida albicans [1] = test: Fungicidal activity, laboratory test on Sabouraud medium; format: cell-based; conditions: composition 0.01 % by mass in distilled water
# Candida tropicalis [2] = test: as above; format: cell-based; conditions: composition 0.01 % by mass in distilled water
# Description: A fungicidal composition based on this compound was prepared which was a solution of it in distilled water at the concentration pf 0.01 % by mass. A fungicidal activity of the composition, according to the invention, was tested in laboratory conditions for inhibiting the growth of fungi such as Candida tropicalis affecting the macosal and skin coats, and internals.
# To this, the Petri dishes containing the Sabouraud growth medium were inoculated with a suspension of microorganisms at the concentration of 5x10^7 cells of fungi in 1 ml.
# The restricted surface areas (7 mm in diameter) were coated with the composition by means of a small metal spatula 4x4 mm in size. In a day of incubating at 37 °C in a thermostat, the composition inhibited the growth of yeast--like fungi. An antifungal activity of the composition was specified by a method of 10-fold serial dilution using Sabouraud's liquid medium in 2 ml of which 2x10^5 cells were introduced. After two days of incubation in the thermostat at 34 °C, a minimum dilution of the substance exerting a fungicidal effect was determined.
# Candida tropicalis [3] = test: Fungicidal activity, large-scale test on contaminated surfaces and fabrics; format: cell-based; conditions: composition 0.01 % by mass; surfaces of ceramics, metal, wood, rubber, fabrics
# Description: (§1) The large-scale tests were carried out by using Candida albicans and Candida tropicalis strains 2-day culture of which was diluted with an isotonic solution of sodium chloride to the concentration of 5x10^7 cells in 1 ml.
# (§2) The suspended cell culture was applied onto the surface (7 mm in diameter) of articles made of ceramics, metal, wood and rubber as well as cotton, flannel woollen fabrics which were presterillized.
# (§3) In a day after incubating from the treated surfaces, the washings were taken with a cotton-gauze tampon wetted with Sabouraud^ts liquid medium, immersed into the tubes with a similar medium and placed into a thermostat at 37 °C for two days. Thereafter, the inoculum was introduced in Sabouraud's stiff agar, and the growth records were made by a conventional procedure.
# Candida albicans [4] = test: as above; format: cell-based; conditions: composition 0.01 % by mass; surfaces of ceramics, metal, wood, rubber, fabrics
# Description: as §1, §2, §3
# Rhyzoctonia violaceae [5] = test: Inhibition of phytopathogenic fungi growth, laboratory test on potato-dextrose agar; format: cell-based; conditions: active principle 0.01 % by mass in potato-dextrose agar
# Description: (§4) A fungicidal composition based on this compound was prepared in the form of a 0.01% solution thereof in distilled water. A fungicidal action of the composition, according to the invention, was tested for inhibition of vegetative fungi growth such as Fusarium moniliforme, Ventura inaequalis, Rhyzoctonia ciolaceae, Botrytis cinereae, Verticillium albo-atrum, Diplodia zeae, Fusarium oxysporum, Rhoma betae, Rhyzoctonia aderholdii, Aspergillus niger, Alternaria sobani, Botrytis allii, Aspergillus fumigatis, Fusarium culmorum, Penicillium cyclopium affecting potato, sugar beet, cotton seeds either in laboratory or field conditions. For testing it to the Petri dishes containing potato-dextrose agar the composition of the invention was.added at the concentration of an active principle of 0.01 % by mass. The Petri dishes containing the same agar culture were inoculated with a mycelium of phytopathogenic fungi. For control dishes the phytopathogenic fungi were inoculated on agar without using the composition of the invention. A fungicidal effect of the composition, according to the invention was tested in comparison with the known fungicidal compositions based on 2,3-dichloro-1,4-naphthoquinone, zinc N,N'-ethylene-bis-dithiocarbamate and tetramethylthiuram disulphide.
# Verticillium albo-atrum [6] = test: as above; format: cell-based; conditions: active principle 0.01 % by mass in potato-dextrose agar
# Description: as §4
# Fusarium oxysporum [7] = test: as above; format: cell-based; conditions: active principle 0.01 % by mass in potato-dextrose agar
# Description: as §4
# Aspergillus fumigatis [8] = test: as above; format: cell-based; conditions: active principle 0.01 % by mass in potato-dextrose agar
# Description: as §4
# Rhyzoctonia aderholdii [9] = test: as above; format: cell-based; conditions: active principle 0.01 % by mass in potato-dextrose agar
# Description: as §4
# Botrytis cinereae [10] = test: as above; format: cell-based; conditions: active principle 0.01 % by mass in potato-dextrose agar
# Description: as §4
# Diplodia zeae [11] = test: as above; format: cell-based; conditions: active principle 0.01 % by mass in potato-dextrose agar
# Description: as §4
# Venturia inaequalis [12] = test: as above; format: cell-based; conditions: active principle 0.01 % by mass in potato-dextrose agar
# Description: as §4
# Alternaria sobani [13] = test: as above; format: cell-based; conditions: active principle 0.01 % by mass in potato-dextrose agar
# Description: as §4
# Fusarium moniliforme [14] = test: as above; format: cell-based; conditions: active principle 0.01 % by mass in potato-dextrose agar
# Description: as §4
# Aspergillus niger [15] = test: as above; format: cell-based; conditions: active principle 0.01 % by mass in potato-dextrose agar
# Description: as §4
# Rhoma betae [16] = test: as above; format: cell-based; conditions: active principle 0.01 % by mass in potato-dextrose agar
# Description: as §4
# Penicillium cyclopium [17] = test: as above; format: cell-based; conditions: active principle 0.01 % by mass in potato-dextrose agar
# Description: as §4
# Botrytis allii [18] = test: as above; format: cell-based; conditions: active principle 0.01 % by mass in potato-dextrose agar
# Description: as §4
# Fusarium culmorum [19] = test: as above; format: cell-based; conditions: active principle 0.01 % by mass in potato-dextrose agar
# Description: as §4
# Rhyzoctonia violaceae [20] = test: Inhibition of phytopathogenic fungi, field test on affected potato plants; format: in vivo; conditions: 5 m^2 plots of affected potato plants sprayed
# Description: (§5) For field tests the plots of 5 m^2 in size with potato plants affected by Fusarium moniliforme, Venturia inaequalis, Rhyzoctonia violaceae, Botrytis cinereae, Verticillium albo-atrum, Diplodia zeae, Fusarium oxysporum, Rhoma betae, Rhyzoctonia aderholdii, Aspergillus niger, Alternaria sobani, Botrytis allii, Aspergillus fumigatis, Fusarium culmorum, Penicillium cyclopium were sprayed with the fungicide of the invention. To compare, the similar plots of the affected potato plants were aprayed with the known compositions indicated above.
# Verticillium albo-atrum [21] = test: as above; format: in vivo; conditions: 5 m^2 plots of affected potato plants sprayed
# Description: as §5
# Fusarium oxysporum [22] = test: as above; format: in vivo; conditions: 5 m^2 plots of affected potato plants sprayed
# Description: as §5
# Aspergillus fumigatis [23] = test: as above; format: in vivo; conditions: 5 m^2 plots of affected potato plants sprayed
# Description: as §5
# Rhyzoctonia aderholdii [24] = test: as above; format: in vivo; conditions: 5 m^2 plots of affected potato plants sprayed
# Description: as §5
# Botrytis cinereae [25] = test: as above; format: in vivo; conditions: 5 m^2 plots of affected potato plants sprayed
# Description: as §5
# Diplodia zeae [26] = test: as above; format: in vivo; conditions: 5 m^2 plots of affected potato plants sprayed
# Description: as §5
# Venturia inaequalis [27] = test: as above; format: in vivo; conditions: 5 m^2 plots of affected potato plants sprayed
# Description: as §5
# Alternaria sobani [28] = test: as above; format: in vivo; conditions: 5 m^2 plots of affected potato plants sprayed
# Description: as §5
# Fusarium moniliforme [29] = test: as above; format: in vivo; conditions: 5 m^2 plots of affected potato plants sprayed
# Description: as §5
# Aspergillus niger [30] = test: as above; format: in vivo; conditions: 5 m^2 plots of affected potato plants sprayed
# Description: as §5
# Rhoma betae [31] = test: as above; format: in vivo; conditions: 5 m^2 plots of affected potato plants sprayed
# Description: as §5
# Penicillium cyclopium [32] = test: as above; format: in vivo; conditions: 5 m^2 plots of affected potato plants sprayed
# Description: as §5
# Botrytis allii [33] = test: as above; format: in vivo; conditions: 5 m^2 plots of affected potato plants sprayed
# Description: as §5
# Fusarium culmorum [34] = test: as above; format: in vivo; conditions: 5 m^2 plots of affected potato plants sprayed
# Description: as §5
smiles,measurement,setting,value
"O=C(NP(=O)(NNc1ccccc1)NNc1ccccc1)c1ccc(Cl)cc1 [Example 10, para--chlorobenzoylamidophosphoric acid diphenyl hydrazide]",solubility,Solubility (qualitative),"soluble in water, alcohols, acetone"
same,"Inhibition of growth of fungal colonies, % Candida albicans tests laboratory",Candida albicans [1],100%
same,"Inhibition of growth of fungal colonies, % Candida tropicalis tests laboratory",Candida tropicalis [2],0%
same,"Inhibition of growth of fungal colonies, % Candida tropicalis tests large-scale",Candida tropicalis [3],100%
same,"Inhibition of growth of fungal colonies, % Candida albicans tests large-scale",Candida albicans [4],100%
O=C(NP(=O)(Nc1ccc(Br)cc1)Nc1ccc(Br)cc1)c1ccc(Br)cc1 [Example 15],solubility,Solubility (qualitative),"soluble in water, alcohols, acetone"
same,"Inhibition of growth of phytopathogenic fungi colonies, % Rhyzoctonia violaceae test laboratory",Rhyzoctonia violaceae [5],100%
same,"Inhibition of growth of phytopathogenic fungi colonies, % Verticillium albo--atrum test laboratory",Verticillium albo-atrum [6],100%
same,"Inhibition of growth of phytopathogenic fungi colonies, % Fusarium oxysporum test laboratory",Fusarium oxysporum [7],83%
same,"Inhibition of growth of phytopathogenic fungi colonies, % Aspergillus fumigatis Tests laboratory",Aspergillus fumigatis [8],88%
same,"Inhibition of growth of phytopathogenic fungi colonies, % Rhyzoctonia aderholdii test laboratory",Rhyzoctonia aderholdii [9],100%
same,"Inhibition of growth of phytopathogenic fungi colonies, % Botrytis cinereae test laboratory",Botrytis cinereae [10],100%
same,"Inhibition of growth of phytopathogenic fungi colonies, % Diplodia zeae test laboratory",Diplodia zeae [11],100%
same,"Inhibition of growth of phytopathogenic fungi colonies, % Venturia inaequalis test laboratory",Venturia inaequalis [12],100%
same,"Inhibition of growth of phytopathogenic fungi colonies, % Alternaria sobani test laboratory",Alternaria sobani [13],100%
same,"Inhibition of growth of phytopathogenic fungi colonies, % Fusatium monili-forme test laboratory",Fusarium moniliforme [14],100%
same,"Inhibition of growth of phytopathogenic fungi colonies, % Aspergillus niger test laboratory",Aspergillus niger [15],100%
same,"Inhibition of growth of phytopathogenic fungi colonies, % Rhoma betae test laboratory",Rhoma betae [16],100%
same,"Inhibition of growth of phytopathogenic fungi colonies, % Penicillium cyclopium Tests laboratory",Penicillium cyclopium [17],100%
same,"Inhibition of growth of phytopathogenic fungi colonies, % Botrytis allii test laboratory",Botrytis allii [18],99%
same,"Inhibition of growth of phytopathogenic fungi colonies, % Fusarium culmorum Tests laboratory",Fusarium culmorum [19],100%
same,"Inhibition of growth of phytopathogenic fungi colonies, % Rhyzoctonia violaceae test field",Rhyzoctonia violaceae [20],99%
same,"Inhibition of growth of phytopathogenic fungi colonies, % Verticillium albo--atrum test field",Verticillium albo-atrum [21],100%
same,"Inhibition of growth of phytopathogenic fungi colonies, % Fusarium oxysporum test field",Fusarium oxysporum [22],81%
same,"Inhibition of growth of phytopathogenic fungi colonies, % Aspergillus fumigatis Tests field",Aspergillus fumigatis [23],80%
same,"Inhibition of growth of phytopathogenic fungi colonies, % Rhyzoctonia aderholdii test field",Rhyzoctonia aderholdii [24],99%
same,"Inhibition of growth of phytopathogenic fungi colonies, % Botrytis cinereae test field",Botrytis cinereae [25],98%
same,"Inhibition of growth of phytopathogenic fungi colonies, % Diplodia zeae test field",Diplodia zeae [26],98%
same,"Inhibition of growth of phytopathogenic fungi colonies, % Venturia inaequalis test field",Venturia inaequalis [27],98%
same,"Inhibition of growth of phytopathogenic fungi colonies, % Alternaria sobani test field",Alternaria sobani [28],98%
same,"Inhibition of growth of phytopathogenic fungi colonies, % Fusatium monili-forme test field",Fusarium moniliforme [29],99%
same,"Inhibition of growth of phytopathogenic fungi colonies, % Aspergillus niger test field",Aspergillus niger [30],98%
same,"Inhibition of growth of phytopathogenic fungi colonies, % Rhoma betae test field",Rhoma betae [31],98%
same,"Inhibition of growth of phytopathogenic fungi colonies, % Penicillium cyclopium Tests field",Penicillium cyclopium [32],89%
same,"Inhibition of growth of phytopathogenic fungi colonies, % Botrytis allii test field",Botrytis allii [33],96%
same,"Inhibition of growth of phytopathogenic fungi colonies, % Fusarium culmorum Tests field",Fusarium culmorum [34],100%
